What was measured:
[1] = system: rat; conditions: Subchronic oral toxicity in rodents, fischer, Feed, dose end: 13 week, group: systemic
[2] = system: mouse; conditions: Subchronic oral toxicity in rodents, b6c3f1, Feed, dose end: 13 week, group: systemic
[3] = system: mouse; conditions: Sub-acute repeat dose toxicity, b6c3f1, Oral, Feed, dose end: 14 day, group: systemic
[4] = system: mouse; conditions: Carcinogenicity, b6c3f1, Oral, Feed, dose end: 103 week, group: systemic
[5] = system: rat; conditions: Carcinogenicity; fischer; Oral; Feed; dose end: 103 week; group: systemic; systemic / in life observation / body weight / body weight
[6] = system: rat; conditions: Sub-acute repeat dose toxicity, fischer, Oral, Feed, dose end: 14 day, group: systemic
[7] = system: rat; conditions: Developmental neurotoxicity study; long evans; Injection; Subcutaneous; dose end: 90 PND; group: cannot be grouped; reproductive / reproductive performance / sex ratio / sex ratio (% male)
[8] = system: mouse; conditions: Subchronic oral toxicity in rodents, cd1, Feed, dose end: 90 day, group: systemic, systemic / organ weight / liver / absolute + systemic / organ weight / liver / relative to body weight + systemic / organ weight / liver / …
[9] = system: mouse; conditions: Carcinogenicity; cd1; Oral; Feed; dose end: 18 month; group: systemic; systemic / organ weight / liver / nos + systemic / pathology microscopic / liver / deformity + systemic / pathology microscopic / liver / …
[10] = system: rat; conditions: Multigenerational reproductive toxicity study, other, Oral, Feed, dose end: 2 generation
[11] = system: rat; conditions: Combined chronic toxicity/carcinogenicity, sprague dawley, Oral, Feed, dose end: 104 week, group: systemic
[12] = system: mouse; conditions: Carcinogenicity; cd1; Oral; Feed; dose end: 18 month; group: systemic; systemic / pathology microscopic / liver / hypertrophy
[13] = system: dog; conditions: Chronic toxicity, beagle, Oral, Feed, dose end: 52 week, group: systemic
[14] = system: dog; conditions: Chronic toxicity, beagle, Oral, Feed, dose end: 26 week, group: systemic
[15] = system: dog; conditions: Chronic toxicity; beagle; Oral; Feed; dose end: 52 week; group: systemic; systemic / clinical chemistry / albumin / albumin + systemic / clinical chemistry / triglycerides / triglycerides + systemic / pathology …
[16] = system: rat; conditions: Subchronic oral toxicity in rodents, wistar, Feed, dose end: 90 day, group: systemic
[17] = system: mouse; conditions: Carcinogenicity, other, Oral, Feed, dose end: 26 month, group: systemic
[18] = system: rat; conditions: Prenatal developmental toxicity study, wistar, Oral, Gavage/Intubation, dose end: 15 GD
[19] = system: rat; conditions: Combined chronic toxicity/carcinogenicity; wistar; Oral; Feed; dose end: 24 month; group: systemic; systemic / in life observation / body weight / body weight + systemic / in life observation / body weight / body weight gain + systemic / …
[20] = system: rat; conditions: Prenatal developmental toxicity study, wistar, Dermal, Topical, dose end: 15 GD
[21] = system: mouse; conditions: Carcinogenicity, b6c3f1, Oral, Feed, dose end: 24 month, group: systemic
[22] = system: rabbit; conditions: Prenatal developmental toxicity study, himalayan, Oral, Gavage/Intubation, dose end: 18 GD
[23] = system: dog; conditions: Subchronic oral toxicity in nonrodent, beagle, Feed, dose end: 13 week, group: systemic, systemic / organ weight / liver / absolute + systemic / organ weight / liver / relative to body weight + systemic / pathology microscopic / …
[24] = systemic / in life observation / body weight / body weight gain
[25] = systemic / in life observation / body weight / body weight gain + systemic / in life observation / body weight / body weight
[26] = systemic / in life observation / body weight / body weight
[27] = systemic / in life observation / body weight / body weight + systemic / in life observation / food consumption / food consumption + systemic…
[28] = systemic / in life observation / body weight / body weight + systemic / pathology microscopic / liver / adenoma/carcinoma combined + …
[29] = systemic / in life observation / body weight / body weight gain + systemic / in life observation / food consumption / food consumption + …
[30] = group: offspring, systemic / in life observation / body weight / offspring (pup) weight + systemic / in life observation / body weight / offspring (pup) …
[31] = group: parental, systemic / organ weight / liver / relative to body weight
[32] = systemic / clinical chemistry / cholesterol / cholesterol + systemic / in life observation / body weight / body weight gain + systemic / …
[33] = systemic / in life observation / body weight / body weight + systemic / in life observation / body weight / body weight gain + systemic / …
[34] = systemic / pathology microscopic / prostate / atrophy + systemic / pathology microscopic / testes / atrophy
[35] = systemic / pathology microscopic / prostate / atrophy + systemic / pathology microscopic / testes / atrophy + systemic / pathology …
[36] = systemic / clinical chemistry / cytochrome p450, nos / cytochrome p450, nos + systemic / pathology microscopic / esophagus / hyperkeratosis…
[37] = systemic / pathology gross / skin / desiccation + systemic / pathology microscopic / ear / hyperkeratosis + systemic / pathology microscopic…
[38] = group: developmental, developmental / developmental malformation / bone / incomplete ossification + developmental / developmental malformation / bone / unossified…
[39] = group: maternal, systemic / in life observation / body weight / body weight + systemic / in life observation / body weight / body weight gain + systemic / in…
[40] = group: developmental, developmental / developmental malformation / bone / incomplete ossification + developmental / developmental malformation / bone / unossified
[41] = group: maternal, systemic / in life observation / clinical signs / erythema + systemic / pathology gross / skin / [other]
[42] = group: maternal, systemic / in life observation / clinical signs / erythema + systemic / pathology gross / skin / [other] + systemic / pathology gross / skin…
[43] = systemic / pathology microscopic / adrenal gland / hyperplasia + systemic / clinical chemistry / bilirubin / total bilirubin
[44] = group: developmental, developmental / developmental malformation / bone / [other] + developmental / developmental malformation / bone / absent + developmental / …
[45] = group: maternal, systemic / in life observation / body weight / body weight gain + systemic / in life observation / clinical signs / anal prolapse + systemic…

In the case of `CCCCC(CC)COC(=O)CCCCC(=O)OCC(CC)CCCC` (stereo not drawn) [Di(2-ethylhexyl) adipate], the LEL [1, 24] was 625 mg/kg/day, the LOAEL [1, 24] was 625 mg/kg/day and the NEL [1, 25] was 315 mg/kg/day. It also gave an NOAEL [1, 25] of 315 mg/kg/day, an LEL [2, 24] of 465 mg/kg/day and an LOAEL [2, 25] of over 3750 mg/kg/day. For the same compound, the NEL [2, 25] was 240 mg/kg/day, the NOAEL [2, 25] was at least 3750 mg/kg/day and the LEL [3, 26] was 3750 mg/kg/day. It also gave an LOAEL [3, 26] of 7500 mg/kg/day, an NEL [3, 27] of 1880 mg/kg/day and an NOAEL [3, 27] of 3750 mg/kg/day. For the same compound, the LOAEL [4, 26] was 1800 mg/kg/day, the NOAEL [4, 26] was under 1800 mg/kg/day and the LEL [4, 28] was 1800 mg/kg/day. For the same compound, the NEL [4, 28] was under 1800 mg/kg/day, the LEL [5] was 1250 mg/kg/day and the LOAEL [5] was 1250 mg/kg/day. It also gave an NEL [5] of 600 mg/kg/day, an NOAEL [5] of 600 mg/kg/day and an LEL [6, 24] of 1250 mg/kg/day. It also gave an LOAEL [6, 24] of 2500 mg/kg/day, an NEL [6, 29] of 625 mg/kg/day and an NOAEL [6, 29] of 1250 mg/kg/day.
Compound `CCN(CC)CC(=O)Nc1c(C)cccc1C` [Lidocaine] has an LEL [7] of 6 mg/kg/day, an LOAEL [7] of over 9 mg/kg/day and an NEL [7] of 3 mg/kg/day. It also gave an NOAEL [7] of at least 9 mg/kg/day.
With `CC1OC(C)OC(C)OC(C)O1` (stereo not drawn) [Metaldehyde acetaldehyde tetramer] the LEL [8] was 178 mg/kg/day, the LOAEL [8] was 178 mg/kg/day and the NEL [8] was 54 mg/kg/day. The NOAEL [8] was 54 mg/kg/day, the LEL [9] was 135 mg/kg/day and the LOAEL [9] was 135 mg/kg/day. The NEL [9] was under 135 mg/kg/day, the NOAEL [9] was under 135 mg/kg/day and the LEL [10, 30] was 134 mg/kg/day. It also gave an LOAEL [10, 30] of 134 mg/kg/day, an NEL [10, 30] of 64.9 mg/kg/day and an NOAEL [10, 30] of 64.9 mg/kg/day. For the same compound, the LEL ([10]; group: parental, systemic / in life observation / body weight / body weight + systemic / in life observation / body weight / body weight gain) was 80.5 mg/kg/day, the NEL ([10]; group: parental, systemic / in life observation / body weight / body weight + systemic / in life observation / body weight / body weight gain + systemic / in…) was 4.03 mg/kg/day and the LOAEL [10, 31] was 134 mg/kg/day. It also gave an NOAEL [10, 31] of 64.9 mg/kg/day, an LOAEL [11, 32] of 44 mg/kg/day and an NOAEL [11, 32] of 2 mg/kg/day. It also gave an LEL [11, 24] of 3 mg/kg/day, an NEL [11, 24] of under 3 mg/kg/day and an LEL [12] of 48.9 mg/kg/day. For the same compound, the LOAEL [12] was 48.9 mg/kg/day, the NEL [12] was 15.9 mg/kg/day and the NOAEL [12] was 15.9 mg/kg/day. For the same compound, the LEL [13, 33] was 10 mg/kg/day, the NEL [13, 33] was under 10 mg/kg/day and the NOAEL ([13]; systemic / in life observation / mortality / mortality + systemic / clinical chemistry / alkaline phosphatase (alp/alk) / alkaline …) was 10 mg/kg/day. For the same compound, the LOAEL ([13]; systemic / in life observation / mortality / mortality + systemic / pathology microscopic / prostate / atrophy + systemic / pathology …) was 30 mg/kg/day, the LEL [14, 34] was 60 mg/kg/day and the LOAEL [14, 34] was 60 mg/kg/day. For the same compound, the NEL [14, 35] was 20 mg/kg/day and the NOAEL [14, 35] was 20 mg/kg/day.
`CCCN(CC)CC1COC2(CCC(C(C)(C)C)CC2)O1` (stereo not drawn) [Spiroxamine] showed an LEL [15] of 25.8 mg/kg/day, an LOAEL [15] of 25.8 mg/kg/day and an NEL [15] of 2.48 mg/kg/day. For the same compound, the NOAEL [15] was 2.48 mg/kg/day, the LEL [16, 36] was 9.3 mg/kg/day and the NEL [16, 36] was 1.9 mg/kg/day. It also gave an NOAEL [16, 36] of 9.3 mg/kg/day, an LOAEL ([16]; systemic / pathology microscopic / esophagus / hyperkeratosis + systemic / pathology microscopic / esophagus / hyperplasia + systemic / …) of 54.9 mg/kg/day and an LOAEL [17, 37] of 59.3 mg/kg/day. It also gave an NEL [17, 37] of 4.5 mg/kg/day, an NOAEL [17, 37] of 36.7 mg/kg/day and an LEL ([17]; systemic / pathology microscopic / esophagus / acanthosis + systemic / pathology microscopic / esophagus / hyperkeratosis + systemic / …) of 36.7 mg/kg/day. For the same compound, the LOAEL ([18]; group: developmental, developmental / developmental malformation / bone / [other] + developmental / developmental malformation / mouth / jaw / cleft palate + …) was 100 mg/kg/day, the LEL [18, 38] was 10 mg/kg/day and the NEL [18, 38] was under 10 mg/kg/day. For the same compound, the NOAEL [18, 38] was 30 mg/kg/day, the LEL [18, 39] was 100 mg/kg/day and the LOAEL [18, 39] was 100 mg/kg/day. It also gave an NEL [18, 39] of 30 mg/kg/day, an NOAEL [18, 39] of 30 mg/kg/day and an LEL [19] of 32.8 mg/kg/day. For the same compound, the LOAEL [19] was 32.8 mg/kg/day, the NEL [19] was 4.22 mg/kg/day and the NOAEL [19] was 4.22 mg/kg/day. For the same compound, the LEL [20, 40] was 80 mg/kg/day, the LOAEL [20, 40] was 80 mg/kg/day and the NEL [20, 40] was 20 mg/kg/day. For the same compound, the NOAEL [20, 40] was 20 mg/kg/day, the LOAEL [20, 41] was 5 mg/kg/day and the NOAEL [20, 41] was under 5 mg/kg/day. For the same compound, the LEL [20, 42] was 5 mg/kg/day, the NEL [20, 42] was under 5 mg/kg/day and the LOAEL ([21]; systemic / pathology microscopic / adrenal gland / hyperplasia) was 150 mg/kg/day. The LEL [21, 43] was 41 mg/kg/day, the NEL [21, 43] was under 41 mg/kg/day and the NOAEL ([21]; systemic / pathology microscopic / adrenal gland / hyperplasia + systemic / pathology microscopic / adrenal gland / adenoma + systemic / …) was 41 mg/kg/day. For the same compound, the LEL [22, 44] was 80 mg/kg/day, the LOAEL [22, 44] was 80 mg/kg/day and the NEL [22, 44] was 20 mg/kg/day. For the same compound, the NOAEL [22, 44] was 20 mg/kg/day, the LEL [22, 45] was 80 mg/kg/day and the LOAEL [22, 45] was 80 mg/kg/day. The NEL [22, 45] was 20 mg/kg/day, the NOAEL [22, 45] was 20 mg/kg/day and the LEL [23] was 20 mg/kg/day. It also gave an LOAEL [23] of 20 mg/kg/day, an NEL [23] of 0.66 mg/kg/day and an NOAEL [23] of 0.66 mg/kg/day.

Reference: EPA's ToxRefDB 2
